Data as given in ChEMBL document CHEMBL1201861, “Genomics of Drug Sensitity in Cancer screening data, Wellcome Trust Sanger Institute”.

Legend:
[1] = system: T84; assay: cells; assay type: functional, cell-based, Homo sapiens; settings: Homo sapiens, T84;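 further: growth inhibition measured with a cell viability readout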
Description: SANGER: Inhibition of human T84 cell growth in a cell viability assay.

[2] = system: A-431; assay: cells; assay type: functional, cell-based, Homo sapiens; settings: Homo sapiens, A-431;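 further: growth inhibition of A-431 cells, determined with a cell viability read-out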
Description: SANGER: Inhibition of human A431 cell growth in a cell viability assay.

[3] = system: LoVo; assay: cells; assay type: functional, cell-based, Homo sapiens; settings: Homo sapiens, LoVo;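 further: growth inhibition of human LoVo cells, read out with a cell viability assay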
Description: SANGER: Inhibition of human LoVo cell growth in a cell viability assay.

[4] = system: T47D; assay: cells; assay type: functional, cell-based, Homo sapiens; settings: Homo sapiens, T47D;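 further: growth inhibition of human T47D cells, measured with a cell viability assay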
Description: SANGER: Inhibition of human T47D cell growth in a cell viability assay.

[5] = system: ABC-1; assay: cells; assay type: functional, cell-based, Homo sapiens; settings: Homo sapiens, ABC-1;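 further: growth inhibition of human ABC-1 cells, read out by a cell viability assay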
Description: SANGER: Inhibition of human ABC-1 cell growth in a cell viability assay.

[6] = system: Ca-Ski; assay: cells; assay type: functional, cell-based, Homo sapiens; settings: Homo sapiens, Ca-Ski;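 further: cell viability assay measuring inhibition of Ca-Ski cell growth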
Description: SANGER: Inhibition of human Ca-Ski cell growth in a cell viability assay.

[7] = system: HCC1954; assay: cells; assay type: functional, cell-based, Homo sapiens; settings: Homo sapiens, HCC1954;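 further: growth inhibition of human HCC1954 cells, read out with a cell viability assay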
Description: SANGER: Inhibition of human HCC1954 cell growth in a cell viability assay.

[8] = system: KYSE-70 cell line; assay: cells; assay type: functional, cell-based, Homo sapiens; settings: Homo sapiens, KYSE-70;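 further: cell viability assay read-out, with IC50 expressing suppression of KYSE-70 cell growth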
Description: SANGER: Inhibition of human KYSE-70 cell growth in a cell viability assay.

[9] = system: C3A; assay: cells; assay type: functional, cell-based, Homo sapiens; settings: Homo sapiens, C3A;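 further: growth inhibition of C3A human cells, quantified with a cell viability readout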
Description: SANGER: Inhibition of human C3A cell growth in a cell viability assay.

[10] = system: KYSE-520 cell line; assay: cells; assay type: functional, cell-based, Homo sapiens; settings: Homo sapiens, KYSE-520;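 further: growth inhibition of human KYSE-520 cells, read out with a viability assay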
Description: SANGER: Inhibition of human KYSE-520 cell growth in a cell viability assay.

[11] = system: NCI-H1417; assay: cells; assay type: functional, cell-based, Homo sapiens; settings: Homo sapiens, NCI-H1417;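 further: human NCI-H1417 cells, growth inhibition determined with a cell viability readout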
Description: SANGER: Inhibition of human NCI-H1417 cell growth in a cell viability assay.

[12] = system: J82; assay: cells; assay type: functional, cell-based, Homo sapiens; settings: Homo sapiens, J82;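 further: growth inhibition of J82 cells, read out with a cell viability assay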
Description: SANGER: Inhibition of human J82 cell growth in a cell viability assay.

[13] = system: NCI-H719; assay: cells; assay type: functional, cell-based, Homo sapiens; settings: Homo sapiens, NCI-H719;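 further: growth inhibition of the cultured cell line, read out with a viability assay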
Description: SANGER: Inhibition of human NCI-H719 cell growth in a cell viability assay.

[14] = system: HT1197; assay: cells; assay type: functional, cell-based, Homo sapiens, HT-1197; settings: Homo sapiens, HT1197
Description: SANGER: Inhibition of human HT-1197 cell growth in a cell viability assay.

[15] = system: KP-4; assay: cells; assay type: functional, cell-based, Homo sapiens; settings: Homo sapiens, KP-4;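 further: human KP-4 cells, with growth inhibition read out through a cell viability assay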
Description: SANGER: Inhibition of human KP-4 cell growth in a cell viability assay.

[16] = system: ACHN; assay: cells; assay type: functional, cell-based, Homo sapiens; settings: Homo sapiens, ACHN;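 further: cell viability read-out used to gauge how strongly growth of human ACHN cells is suppressed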
Description: SANGER: Inhibition of human ACHN cell growth in a cell viability assay.

[17] = system: HLE; assay: cells; assay type: functional, cell-based, Homo sapiens; settings: Homo sapiens, HLE;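 further: growth inhibition of human HLE cells, read out by a cell viability assay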
Description: SANGER: Inhibition of human HLE cell growth in a cell viability assay.

[18] = system: MeWo; assay: cells; assay type: functional, cell-based, Homo sapiens; settings: Homo sapiens, MeWo;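 further: growth inhibition of MeWo cells, determined by a cell viability readout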
Description: SANGER: Inhibition of human Mewo cell growth in a cell viability assay.

[19] = system: ST486; assay: SANGER: Inhibition of human ST486 cell growth in a cell viability assay.; assay type: functional, cell-based; settings: Homo sapiens, ST486
[20] = system: SK-MEL-30; assay: cells; assay type: functional, cell-based, Homo sapiens; settings: Homo sapiens, SK-MEL-30;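 further: growth inhibition of SK-MEL-30 cells, determined with a cell viability assay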
Description: SANGER: Inhibition of human SK-MEL-30 cell growth in a cell viability assay.

[21] = system: PC-14; assay: cells; assay type: functional, cell-based, Homo sapiens; settings: Homo sapiens, PC-14;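 further: cell viability assay measuring inhibition of PC-14 cell growth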
Description: SANGER: Inhibition of human PC-14 cell growth in a cell viability assay.

[22] = system: JEG-3; assay: cells; assay type: functional, cell-based, Homo sapiens; settings: Homo sapiens, JEG-3;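 further: growth inhibition of human JEG-3 cells, read out with a cell viability assay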
Description: SANGER: Inhibition of human JEG-3 cell growth in a cell viability assay.

[23] = system: RPMI-2650; assay: cells; assay type: functional, cell-based, Homo sapiens; settings: Homo sapiens, RPMI-2650
Description: SANGER: Inhibition of human RPMI-2650 cell growth in a cell viability assay.

[24] = system: SCC-3; assay: cells; assay type: functional, cell-based, Homo sapiens; settings: Homo sapiens, SCC-3;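 further: cell viability assay measuring inhibition of SCC-3 cell growth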
Description: SANGER: Inhibition of human SCC-3 cell growth in a cell viability assay.

[25] = system: HT-29; assay: cells; assay type: functional, cell-based, Homo sapiens; settings: Homo sapiens, HT-29;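 further: growth inhibition of human HT-29 cells, read out by a cell viability assay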
Description: SANGER: Inhibition of human HT-29 cell growth in a cell viability assay.

[26] = system: ASPC1; assay: cells; assay type: functional, cell-based, Homo sapiens; settings: Homo sapiens, ASPC1;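 further: growth inhibition of AsPC-1 cells, read out with a cell viability assay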
Description: SANGER: Inhibition of human AsPC-1 cell growth in a cell viability assay.

[27] = system: NCI-H2141; assay: cells; assay type: functional, cell-based, Homo sapiens; settings: Homo sapiens, NCI-H2141;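 further: growth inhibition of human NCI-H2141 cells, read out with a cell viability assay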
Description: SANGER: Inhibition of human NCI-H2141 cell growth in a cell viability assay.

[28] = system: BHT-101; assay: cells; assay type: functional, cell-based, Homo sapiens; settings: Homo sapiens, BHT-101
Description: SANGER: Inhibition of human BHT-101 cell growth in a cell viability assay.

[29] = system: RD; assay: cells; assay type: functional, cell-based, Homo sapiens; settings: Homo sapiens, RD
Description: SANGER: Inhibition of human RD cell growth in a cell viability assay.

[30] = system: BC1 cell line; assay: SANGER: Inhibition of human BC-1 cell growth in a cell viability assay.; assay type: functional, cell-based; settings: Homo sapiens, BC1
[31] = system: CHP-212; assay: cells; assay type: functional, cell-based, Homo sapiens; settings: Homo sapiens, CHP-212
Description: SANGER: Inhibition of human CHP-212 cell growth in a cell viability assay.

[32] = system: NCI-H1693; assay: cells; assay type: functional, cell-based, Homo sapiens; settings: Homo sapiens, NCI-H1693;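 further: growth inhibition of the human cell line, read out with a cell viability assay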
Description: SANGER: Inhibition of human NCI-H1693 cell growth in a cell viability assay.

[33] = system: Ca9-22; assay: cells; assay type: functional, cell-based, Homo sapiens; settings: Homo sapiens, Ca9-22;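 further: growth inhibition of Ca9-22 cells, read out with a cell viability assay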
Description: SANGER: Inhibition of human Ca9-22 cell growth in a cell viability assay.

[34] = system: NCI-H2228; assay: cells; assay type: functional, cell-based, Homo sapiens; settings: Homo sapiens, NCI-H2228;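 further: growth inhibition of human NCI-H2228 cells, read out by a cell viability assay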
Description: SANGER: Inhibition of human NCI-H2228 cell growth in a cell viability assay.

[35] = system: HGC-27; assay: cells; assay type: functional, cell-based, Homo sapiens; settings: Homo sapiens, HGC-27;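 further: growth inhibition of human HGC-27 cells, read out in a cell viability assay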
Description: SANGER: Inhibition of human HGC-27 cell growth in a cell viability assay.

[36] = system: A204; assay: cells; assay type: functional, cell-based, Homo sapiens; settings: Homo sapiens, A204;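 further: growth inhibition of human A204 cells, read out with a cell viability assay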
Description: SANGER: Inhibition of human A204 cell growth in a cell viability assay.

[37] = system: NCI-H1651; assay: cells; assay type: functional, cell-based, Homo sapiens; settings: Homo sapiens, NCI-H1651;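 further: Read-out is a cell viability assay, with IC50 expressing inhibition of NCI-H1651 cell growth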
Description: SANGER: Inhibition of human NCI-H1651 cell growth in a cell viability assay.

[38] = system: HCC38; assay: cells; assay type: functional, cell-based, Homo sapiens; settings: Homo sapiens, HCC38;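 further: cell viability assay on the human HCC38 cell line, with IC50 marking the concentration that inhibits cell growth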
Description: SANGER: Inhibition of human HCC38 cell growth in a cell viability assay.

[39] = system: IM-9; assay: SANGER: Inhibition of human IM-9 cell growth in a cell viability assay.; assay type: functional, cell-based; settings: Homo sapiens, IM-9
[40] = system: Daudi; assay: cells; assay type: functional, cell-based, Homo sapiens; settings: Homo sapiens, Daudi;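 further: growth inhibition of Daudi cells, read out by a viability assay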
Description: SANGER: Inhibition of human Daudi cell growth in a cell viability assay.

[41] = system: PF-382; assay: cells; assay type: functional, cell-based, Homo sapiens; settings: Homo sapiens, PF-382
Description: SANGER: Inhibition of human PF-382 cell growth in a cell viability assay.

[42] = system: SK-OV-3; assay: cells; assay type: functional, cell-based, Homo sapiens; settings: Homo sapiens, SK-OV-3;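 further: growth inhibition of SK-OV-3 human cells, read out with a cell viability assay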
Description: SANGER: Inhibition of human SK-OV-3 cell growth in a cell viability assay.

[43] = system: SW48; assay: cells; assay type: functional, cell-based, Homo sapiens; settings: Homo sapiens, SW48;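 further: growth inhibition of SW48 cells, read out with a cell viability assay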
Description: SANGER: Inhibition of human SW48 cell growth in a cell viability assay.

[44] = system: 786-0; assay: cells; assay type: functional, cell-based, Homo sapiens; settings: Homo sapiens
Description: SANGER: Inhibition of human 786-0 cell growth in a cell viability assay.

[45] = system: TUR; assay: cells; assay type: functional, cell-based, Homo sapiens; settings: Homo sapiens, TUR;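 further: growth inhibition of human TUR cells, read out with a cell viability assay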
Description: SANGER: Inhibition of human TUR cell growth in a cell viability assay.

[46] = system: ChaGo-K-1; assay: cells; assay type: functional, cell-based, Homo sapiens; settings: Homo sapiens, ChaGo-K-1;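 further: growth inhibition of ChaGo-K-1 cells, read out with a cell viability assay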
Description: SANGER: Inhibition of human ChaGo-K-1 cell growth in a cell viability assay.

[47] = system: YT; assay: cells; assay type: functional, cell-based, Homo sapiens; settings: Homo sapiens, YT
Description: SANGER: Inhibition of human YT cell growth in a cell viability assay.

Measured: IC50

CCC/C=C/C=C/C(=O)O[C@H]1/C(=C/C(=O)OC)C[C@H]2C[C@H]([C@@H](C)O)OC(=O)C[C@H](O)C[C@@H]3C[C@H](OC(C)=O)C(C)(C)[C@](O)(C[C@@H]4C/C(=C/C(=O)OC)C[C@H](/C=C/C(C)(C)[C@]1(O)O2)O4)O3 [BRYOSTATIN 1]
> 8 nM: [1] | [2] | [3] | [4] | [5] | [6] | [7] | [8] | [9] | [10] | [11] | [12] | [13] | [14] | [15] | [16] | [17] | [18] | [19] | [20] | [21] | [22] | [23] | [24] | [25] | [26] | [27] | [28] | [29] | [30] | [31] | [32] | [33] | [34] | [35] | [36] | [37] | [38] | [39] | [40] | [41] | [42] | [43] | [44] | [45] | [46] | [47]
